#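 Exposure lasted 48 hours, with cells grown in 96-well plates and compounds tested at five concentrations. GI50 is the concentration that inhibits growth by half. TGI: concentration producing complete growth inhibition.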
# Tests used:
# Test in all cases: inhibition of tumour cell growth, NCI panel, 48 h
# UACC-62 melanoma = tested on: UACC-62 melanoma
# NCI-H23 lung = tested on: NCI-H23 lung
# K-562 leukemia = tested on: K-562 leukemia
# TK-10 renal = tested on: TK-10 renal
# MDA-MB-435 = tested on: MDA-MB-435
# 786-0 renal = tested on: 786-0 renal
# MOLT-4 leukemia = tested on: MOLT-4 leukemia
# EKVX NSCLC = tested on: EKVX NSCLC
# IGROV1 ovarian = tested on: IGROV1 ovarian
# NCI/ADR-RES ovarian = tested on: NCI/ADR-RES ovarian
SMILES,GI50 (UACC-62 melanoma),TGI (UACC-62 melanoma),GI50 (NCI-H23 lung),TGI (NCI-H23 lung),GI50 (K-562 leukemia),TGI (K-562 leukemia),GI50 (TK-10 renal),TGI (TK-10 renal),GI50 (MDA-MB-435),TGI (MDA-MB-435),GI50 (786-0 renal),TGI (786-0 renal),GI50 (MOLT-4 leukemia),TGI (MOLT-4 leukemia),GI50 (EKVX NSCLC),TGI (EKVX NSCLC),GI50 (IGROV1 ovarian),TGI (IGROV1 ovarian),GI50 (NCI/ADR-RES ovarian),TGI (NCI/ADR-RES ovarian)
Cn1cc(-c2csc(-c3cn(C(=O)OC(C)(C)C)c4ccccc34)n2)c2cccnc21,7.8 µM,22.4 µM,11.2 µM,30.9 µM,2.02 µM,> 100 µM,15.9 µM,42.2 µM,1.68 µM,22.2 µM,4.92 µM,16.4 µM,8.88 µM,46.8 µM,7.12 µM,33.7 µM,6.5 µM,31 µM,2.33 µM,14.4 µM
CS(=O)(=O)CCNCc1ccoc1-c1ccc2ncnc(Nc3ccc(OCc4ccccc4)cc3)c2c1,> 25 µM,> 25 µM,> 25 µM,> 25 µM,14.4 µM,> 25 µM,1.38 µM,> 25 µM,> 25 µM,> 25 µM,> 25 µM,> 25 µM,20.1 µM,> 25 µM,1.03 µM,> 25 µM,> 17 µM,> 25 µM,> 25 µM,> 25 µM
CC1=C(SCCC(=O)OC(C[Se]C2=C(C)C(=O)c3ccccc3C2=O)C(=O)NC(C)(C)C)C(=O)c2ccccc2C1=O (stereo not given),1.48 µM,2.83 µM,1.13 µM,2.69 µM,0.774 µM,2.59 µM,2.52 µM,4.1 µM,1.77 µM,3.77 µM,1.57 µM,2.91 µM,0.274 µM,1.31 µM,1.58 µM,4.48 µM,0.771 µM,2.1 µM,0.701 µM,1.98 µM
COc1ccc2c(c1)[nH]c1c3ccc(OC)cc3oc(=O)c21,–,> 100 µM,–,> 100 µM,–,> 100 µM,–,> 100 µM,–,> 100 µM,–,> 100 µM,–,> 100 µM,–,> 100 µM,–,> 100 µM,–,> 100 µM
CN1CCN(c2nc3cc(F)ccc3n3cccc23)CC1,–,80.4 µM,–,> 100 µM,–,> 100 µM,–,> 100 µM,–,64.6 µM,–,> 100 µM,–,81.8 µM,–,> 100 µM,–,87.6 µM,–,> 100 µM
COc1ccc(C2C3=C(COC3=O)N(CCO)c3cc4c(cc32)CCC4)cc1 (stereo not given),2.65 µM,> 50 µM,7.05 µM,> 50 µM,1.69 µM,> 50 µM,3.36 µM,39.9 µM,1.13 µM,5.09 µM,4.8 µM,> 50 µM,2.2 µM,> 50 µM,13.5 µM,> 50 µM,2.15 µM,18.4 µM,3.89 µM,25.8 µM
CC1/C(=N/O)CC(c2ccccc2)N(N=O)C1c1ccccc1 (stereo not given),–,> 100 µM,–,> 100 µM,–,> 100 µM,–,> 100 µM,–,> 100 µM,–,> 100 µM,–,> 100 µM,–,> 100 µM,–,> 100 µM,–,> 100 µM
CCCC(=O)OC(OC(=O)CCC)c1ccc([N+](=O)[O-])o1,–,49.1 µM,–,48.8 µM,–,> 100 µM,–,53.5 µM,–,47.4 µM,–,36.5 µM,–,98.4 µM,–,99.6 µM,–,28.3 µM,–,> 100 µM
CN(C)Cc1cc(C(C)(C)C)cc(CN(C)C)c1O,–,> 100 µM,–,> 100 µM,–,> 100 µM,–,> 100 µM,–,> 100 µM,–,> 100 µM,–,> 100 µM,–,> 100 µM,–,> 100 µM,–,> 100 µM
O=S(=O)(Nc1ccc(Cl)c(Cl)c1)c1ccc(-c2cnc(C3CC3)o2)cc1,0.433 µM,14.5 µM,1.33 µM,19.6 µM,0.28 µM,> 38.3 µM,10.3 µM,36.1 µM,0.139 µM,0.674 µM,0.668 µM,18.8 µM,0.659 µM,> 63.6 µM,1.15 µM,30.4 µM,0.587 µM,15.8 µM,0.345 µM,4.91 µM
CCSc1nc(N)c2cnn(CC)c2n1,4.8 µM,24.5 µM,10.3 µM,22 µM,9.11 µM,> 100 µM,4.56 µM,36.1 µM,7.64 µM,37.8 µM,26.5 µM,> 100 µM,3.99 µM,> 100 µM,7.79 µM,34.1 µM,2.14 µM,9.13 µM,18.5 µM,63.3 µM
C=C1C(=O)OC2(C)CCC1CC1OC1(C)CCC=C(C)CCC2O (stereo not given),–,> 100 µM,–,> 100 µM,–,> 100 µM,–,> 100 µM,–,> 100 µM,–,> 100 µM,–,> 100 µM,–,> 100 µM,–,> 100 µM,–,> 100 µM
N/C(CC(=O)NOC(=O)c1ccccc1)=N/OC(=O)c1ccccc1,–,> 100 µM,–,> 100 µM,–,71.7 µM,–,> 100 µM,–,> 100 µM,–,> 100 µM,–,75.9 µM,–,77.5 µM,–,31.7 µM,–,> 100 µM
c1ccc(-c2cc3n4c(-c5ccccc5)nn(-c5ccccc5)c4cnc-3n2)cc1,> 50 µM,> 50 µM,> 50 µM,> 50 µM,> 50 µM,> 50 µM,19.3 µM,> 50 µM,> 50 µM,> 50 µM,19.8 µM,> 50 µM,> 50 µM,> 50 µM,17 µM,> 50 µM,> 50 µM,> 50 µM,> 50 µM,> 50 µM
CC(C)OP(=O)(OC(C)C)/C(C#N)=C/c1c[nH]c2ccccc12,–,> 100 µM,–,> 100 µM,–,> 100 µM,–,> 100 µM,–,> 100 µM,–,> 100 µM,–,> 100 µM,–,> 100 µM,–,> 100 µM,–,> 100 µM

# From PubChem BioAssay (NCI)
